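How tested: cells in 96-well plates exposed to compound for 48 hours at five concentrations. TGI denotes the concentration required for complete inhibition of growth.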
Columns and labels:
Assay in all cases: NCI tumour cell line growth inhibition, 48 h
M19-MEL melanoma = tested on: M19-MEL melanoma
HOP-18 NSCLC = tested on: HOP-18 NSCLC
LXFL 529 NSCLC = tested on: LXFL 529 NSCLC
DMS 114 small cell lung = tested on: DMS 114 small cell lung
DLD-1 colon = tested on: DLD-1 colon
LOX IMVI melanoma = tested on: LOX IMVI melanoma
RXF 393 renal = tested on: RXF 393 renal
SK-MEL-2 melanoma = tested on: SK-MEL-2 melanoma
KM20L2 colon = tested on: KM20L2 colon
DMS 273 small cell lung = tested on: DMS 273 small cell lung
XF 498 CNS = tested on: XF 498 CNS
HOP-92 NSCLC = tested on: HOP-92 NSCLC
ACHN renal = tested on: ACHN renal
P388 leukemia = tested on: P388 leukemia
P388/ADR leukemia = tested on: P388/ADR leukemia
SNB-78 CNS = tested on: SNB-78 CNS
SN12K1 renal = tested on: SN12K1 renal
RXF-631 renal = tested on: RXF-631 renal
MDA-MB-435 = tested on: MDA-MB-435
MDA-MB-231 breast = tested on: MDA-MB-231 breast

| SMILES | TGI (M19-MEL melanoma) | TGI (HOP-18 NSCLC) | TGI (LXFL 529 NSCLC) | TGI (DMS 114 small cell lung) | TGI (DLD-1 colon) | TGI (LOX IMVI melanoma) | TGI (RXF 393 renal) | TGI (SK-MEL-2 melanoma) | TGI (KM20L2 colon) | TGI (DMS 273 small cell lung) | TGI (XF 498 CNS) | TGI (HOP-92 NSCLC) | TGI (ACHN renal) | TGI (P388 leukemia) | TGI (P388/ADR leukemia) | TGI (SNB-78 CNS) | TGI (SN12K1 renal) | TGI (RXF-631 renal) | TGI (MDA-MB-435) | TGI (MDA-MB-231 breast) |
| --- | --- | --- | --- | --- | --- | --- | --- | --- | --- | --- | --- | --- | --- | --- | --- | --- | --- | --- | --- | --- |
| CC1=C2C(=O)C3[C@@H](CCC4=CC(=O)CC[C@@]43C)C2CC[C@]12O[C@@H]1C[C@H](C)CN[C@H]1[C@H]2C (some centres not stated) | > 100 µM | > 100 µM | > 100 µM | 28.9 µM | > 100 µM | > 100 µM | > 100 µM | 63.2 µM | > 100 µM | 42.8 µM | 94.4 µM | > 100 µM | > 100 µM | – | – | – | – | – | – | – |
| Nc1ccc2cc(S(=O)(=O)O)cc(O)c2c1N=Nc1ccc(NC(=O)Nc2ccc(N=Nc3c(N)ccc4cc(S(=O)(=O)O)cc(O)c34)c(S(=O)(=O)O)c2)cc1S(=O)(=O)O | > 100 µM | > 100 µM | – | > 100 µM | > 100 µM | > 100 µM | > 100 µM | > 100 µM | – | > 100 µM | > 100 µM | > 100 µM | – | > 100 µM | > 100 µM | > 100 µM | > 100 µM | – | – | – |
| C=C1C(=O)OC2C[C@H](C)C3CC(=O)C(C)=C3CC12 (some centres not stated) | 27.8 µM | – | 24.7 µM | 32.2 µM | 21.5 µM | 30.4 µM | 31.6 µM | 29 µM | 33.5 µM | 32.5 µM | 30.1 µM | 24.1 µM | 25.5 µM | – | – | 44.1 µM | – | – | – | – |
| COc1cc(C2c3cc4c(cc3OC3(O)COC(=O)C23)OCO4)cc(OC)c1OC (configuration not stated) | > 100 µM | > 100 µM | > 100 µM | > 100 µM | > 100 µM | > 100 µM | 91.5 µM | > 100 µM | 54.3 µM | > 100 µM | 96.7 µM | – | > 100 µM | – | – | > 100 µM | – | > 100 µM | – | – |
| Cc1c2ccccc2c(CO)c2cc(F)c3ccccc3c12 | > 100 µM | 89.9 µM | – | 34.2 µM | 43.6 µM | 36.1 µM | 61.5 µM | 36.7 µM | 48.6 µM | 32 µM | 51 µM | 78.4 µM | 58.2 µM | – | – | 69.1 µM | – | 30.7 µM | – | – |
| CCCCC(NC(=O)CC)C(=O)O (configuration not stated) | > 100 µM | > 100 µM | – | > 100 µM | > 100 µM | > 100 µM | – | > 100 µM | > 100 µM | > 100 µM | > 100 µM | > 100 µM | – | > 100 µM | > 100 µM | > 100 µM | > 100 µM | – | – | – |
| COc1cc(C2C(Cl)C(=O)N2NC(=O)c2ccc(NC(C)=O)cc2)cc(Br)c1O (configuration not stated) | > 100 µM | > 100 µM | > 100 µM | – | > 100 µM | – | – | > 100 µM | – | – | – | > 100 µM | > 100 µM | – | – | – | – | – | – | – |
| Cc1ccc(S(=O)(=O)c2c(N)c3nccn3c3nc4ccccc4nc23)cc1 | > 100 µM | – | > 100 µM | > 100 µM | > 100 µM | > 100 µM | – | > 100 µM | > 100 µM | > 100 µM | > 100 µM | > 100 µM | > 100 µM | – | – | > 100 µM | – | – | – | – |
| COc1ccc(-c2nc(N)c(C#N)c3c2CCSc2ccc(C)cc2-3)cc1OC | – | – | – | – | – | > 50.2 µM | > 100 µM | > 75.6 µM | – | – | – | 55 µM | > 73.9 µM | – | – | – | – | – | > 100 µM | 35.8 µM |
| COc1nc(/C=N/NC(N)=S)nc(OC)n1 | > 100 µM | > 100 µM | > 100 µM | > 100 µM | > 100 µM | – | > 100 µM | > 100 µM | > 100 µM | > 100 µM | > 100 µM | > 100 µM | > 100 µM | – | – | > 100 µM | – | > 100 µM | – | – |
| CC(=O)Nc1ccc(C2=N/C(=C\c3ccc(Cl)c(Cl)c3)C(=O)O2)cc1 | > 100 µM | > 100 µM | > 100 µM | > 100 µM | > 100 µM | > 100 µM | > 100 µM | > 100 µM | > 100 µM | > 100 µM | > 100 µM | > 100 µM | > 100 µM | – | – | > 100 µM | – | > 100 µM | – | – |

— PubChem BioAssay (NCI)
